The source of these data is patent publication EP4585587A1, “PROPIONIC ACID DERIVATIVE AND USE THEREOF IN MEDICINE” (priority 2022, dated 2024).

The AUC is the area under the concentration-time curve, a measure of exposure.

SMILES strings stand for the structures. Structures can show the parent of a compound that is named as a salt. Where two headings read alike, the source gives them in different places.

One data set addresses T1, integrin α4β7 (Homo sapiens, UniProt P13612+P26010).
T1 sequence (P13612 34-1032): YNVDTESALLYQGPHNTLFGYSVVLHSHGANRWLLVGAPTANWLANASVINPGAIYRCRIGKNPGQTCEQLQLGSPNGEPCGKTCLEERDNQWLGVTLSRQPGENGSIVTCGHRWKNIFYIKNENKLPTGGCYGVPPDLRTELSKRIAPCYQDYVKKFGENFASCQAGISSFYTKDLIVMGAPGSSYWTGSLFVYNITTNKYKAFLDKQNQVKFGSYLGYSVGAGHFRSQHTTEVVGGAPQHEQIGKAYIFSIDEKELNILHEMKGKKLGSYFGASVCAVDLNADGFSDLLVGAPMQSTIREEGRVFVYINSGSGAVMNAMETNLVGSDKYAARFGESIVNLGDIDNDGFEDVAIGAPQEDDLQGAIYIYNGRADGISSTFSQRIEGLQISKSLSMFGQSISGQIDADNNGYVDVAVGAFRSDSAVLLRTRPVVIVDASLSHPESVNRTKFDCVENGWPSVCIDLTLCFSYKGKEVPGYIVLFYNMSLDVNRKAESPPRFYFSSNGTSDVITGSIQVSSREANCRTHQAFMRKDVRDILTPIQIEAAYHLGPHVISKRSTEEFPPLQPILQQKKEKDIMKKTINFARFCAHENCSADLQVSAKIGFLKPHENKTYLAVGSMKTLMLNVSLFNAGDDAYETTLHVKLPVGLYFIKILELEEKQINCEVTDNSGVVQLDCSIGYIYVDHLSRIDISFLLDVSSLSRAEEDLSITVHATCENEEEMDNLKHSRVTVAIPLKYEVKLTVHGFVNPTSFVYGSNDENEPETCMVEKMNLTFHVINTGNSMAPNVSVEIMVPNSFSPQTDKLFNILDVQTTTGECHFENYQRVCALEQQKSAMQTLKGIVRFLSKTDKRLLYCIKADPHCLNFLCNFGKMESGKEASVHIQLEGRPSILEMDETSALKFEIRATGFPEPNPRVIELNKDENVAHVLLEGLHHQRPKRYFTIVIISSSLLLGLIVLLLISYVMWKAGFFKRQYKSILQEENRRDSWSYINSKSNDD
T1 sequence (P26010 20-798): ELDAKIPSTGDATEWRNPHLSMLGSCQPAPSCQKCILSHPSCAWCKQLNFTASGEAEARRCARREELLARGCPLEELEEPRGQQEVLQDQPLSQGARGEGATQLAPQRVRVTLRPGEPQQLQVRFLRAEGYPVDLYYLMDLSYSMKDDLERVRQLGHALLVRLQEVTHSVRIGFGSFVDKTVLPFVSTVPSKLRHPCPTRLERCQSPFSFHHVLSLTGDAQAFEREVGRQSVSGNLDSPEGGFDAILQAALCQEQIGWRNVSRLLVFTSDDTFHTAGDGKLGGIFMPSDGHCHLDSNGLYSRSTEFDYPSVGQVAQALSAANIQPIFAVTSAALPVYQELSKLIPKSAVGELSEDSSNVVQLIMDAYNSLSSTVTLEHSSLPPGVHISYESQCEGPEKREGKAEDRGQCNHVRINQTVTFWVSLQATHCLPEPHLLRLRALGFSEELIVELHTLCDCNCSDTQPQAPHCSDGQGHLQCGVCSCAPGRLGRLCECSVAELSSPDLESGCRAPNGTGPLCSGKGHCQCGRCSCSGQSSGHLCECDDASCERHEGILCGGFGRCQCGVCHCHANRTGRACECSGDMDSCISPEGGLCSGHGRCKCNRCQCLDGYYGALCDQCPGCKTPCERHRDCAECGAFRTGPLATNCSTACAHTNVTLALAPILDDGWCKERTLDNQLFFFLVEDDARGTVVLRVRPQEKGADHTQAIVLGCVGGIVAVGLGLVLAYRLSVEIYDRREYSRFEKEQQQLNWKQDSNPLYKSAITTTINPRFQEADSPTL
Description: Integrin α4β7 cell adhesion assay (RPMI8866 cells on MAdCAM-1). The data set is classed as cell-based. The following applies: RPMI8866 cells, MAdCAM-1 coated plate, read-out: RPMI-8866 (α4β7)/MadCAM-1 IC50. The protocol: MAdCAM-1 was formulated with TBS buffer to a final concentration of 2 µg/ml, 50 µl of the solution was transferred to a 96-well plate, and the plate was coated with same at 4°C overnight. The plate was washed with TBS buffer three times, then 150 µl of a blocking solution (TBS buffer containing 1% BSA) was added, and the plate was blocked at 37°C for 1 h. […] 50 µl of the cell suspension was transferred to a 96-well plate so that the cell density reached 2×10^5 cells/well. Then 1 µl of the compound at different concentrations or DMSO was added and the plate was incubated at 37°C for 1 h or 2 h. The plate was washed with TBS buffer to remove non-adherent cells. 50 µl of a substrate (4-nitrophenyl-N-acetyl-β-D-glucosaminide) was added and the plate was incubated at 37°C for 2 h. […] The IC50 value was calculated using GraphPad Prism 6 software.

In a further data set the test system is integrin α4β1. Description: Integrin α4β1-mediated cell adhesion assay (Jurkat cells on VCAM). The following applies: for α4β1/α4β7: selectivity ratio of Jurkat (α4β1)/VCAM-1 IC50 to RPMI-8866 (α4β7)/MadCAM-1 IC50; for IC50: Jurkat cells, VCAM coated plate, read-out: Jurkat (α4β1)/VCAM-1 IC50. The format is cell-based. The method, then: VCAM was formulated into a final concentration of 0.5 µg/ml with a coating buffer, 50 µl of the solution was transferred to a 96-well plate, and the plate was coated with same at 4°C overnight. The plate was washed with coating buffer three times, then 150 µl of a blocking solution (coating buffer containing 1% BSA) was added, and the plate was blocked at 37°C for 1 h. Jurkat cells were collected, washed twice using DPBS buffer, and then resuspended to 4 × 10^6 cells/ml with an action buffer. 50 µl of the cell suspension was transferred to a 96-well plate so that the cell density reached 2 × 10^5 cells/well. Then 1 µl of the test compound at different concentration or DMSO was added and the plate was incubated at 37°C for 1 h. The plate was washed with coating buffer to remove non-adherent cells. 50 µl of a substrate (4-nitrophenyl-N-acetyl-β-D-glucosaminide) was added and the plate was incubated at 37°C for 2 h. Finally, 90 µl of a termination solution (50 mM glycine and 5 mM EDTA, pH 10.4) was added. The OD value of the plate was read at 405 nm. • Coating buffer: DMEM+ 20 mM HEPES+ 0.4 mM MnCl2 • Action buffer: DMEM+ 20 mM HEPES+ 0.1% BSA+0.4 mM MnCl2 • DMEM: dulbecco's modified eagle medium; • HEPES: 2-[4-(2-hydroxyethyl)piperazin-1-yl]ethanesulfonic acid Table 1 Results of effects of compounds on α4β7- and α4β1-mediated cell adhesion

Data set [1] is described as follows: Pharmacokinetic test in mice. The data set is classed as in vivo. The following applies: male BALB/c mice, plasma. The method, then:
Experimental animals: male BALB/c mice, 20-25 g, 6 mice/compound. purchased from Chengdu Ddossy Experimental Animals Co., Ltd.
Experimental design: on the day of the test, 6 BALB/c mice were randomly grouped according to their body weights. The animals were fasted with water available for 12 to 14 h one day before the administration and were fed 4 h after the administration. Table 2. Administration information
Before and after the administration, 0.06 mL of blood was taken from the orbit of the animals under isoflurane anesthesia and placed in an EDTAK2 centrifuge tube. The blood was centrifuged at 5000 rpm and 4°C for 10 min to collect plasma. The blood collection time points for the intravenous group and intragastric group were both 0 min, 5 min, 15 min, 30 min, 1 h, 2 h, 4 h, 6 h, 8 h, and 24 h. Before analysis and detection, all samples were stored at -80°C, and the samples were quantitatively analyzed by LC-MS/MS.

The nature of data set [2]: Test of stability in liver microsomes. The format is in vitro ADME. To be noted: Monkey liver microsomes, 1 µM, 37°C, NADPH. (In general: Liver microsomes are vesicles of endoplasmic reticulum, rich in cytochrome P450 enzymes.)
Description: (§1) In this experiment, liver microsomes of three species, including monkey, rat and mouse, were used as in vitro models to evaluate the metabolic stability of the test compound.
(§2) At 37°C, 1 µM of the test compound was co-incubated with microsomal protein and coenzyme NADPH. At given time points of the reaction (5 min, 10 min, 20 min, 30 min, and 60 min), the reaction was terminated by adding ice-cold acetonitrile containing an internal standard. The LC-MS/MS method was used to measure the concentration of the test compound in the sample. T1/2 was calculated using the natural logarithm (In) of the residual rate of the drug in the incubation system and the incubation time. In addition, the intrinsic clearance in liver microsomes CLint(mic) and the intrinsic clearance in liver CLint(Liver) were further calculated.
Data set [3] can be described thus: Test of stability in liver microsomes. The following applies: Rat liver microsomes, 1 µM, 37°C, NADPH. The format is in vitro ADME.
Description: as §1, §2
Data set [4] is described as follows: Test of stability in liver microsomes. The format is in vitro ADME, mouse. To be noted: Mice liver microsomes, 1 µM, 37°C, NADPH.
Description: as §1, §2

Turning to `Cc1cc(F)cc(C)c1-c1c(F)c(C(CC(=O)O)NC(=O)[C@H](CC(C)C)n2cc(CCC3CCCN3C)c(C(F)(F)F)cc2=O)c(F)c2c1CCC2` (single isomer, unassigned) [Trifluoroacetate salt of compound 28-2], the IC50 at integrin α4β7 (reported as class symbol) is less than 10 nM. In the data set with integrin α4β1, the α4β1/α4β7 was 130.

Turning to `Cc1cc(-c2c(C)cc(F)cc2C)cc([C@H](CC(=O)O)NC(=O)[C@H](CC(C)C)n2cc(CCN(C)C)c(C(F)(F)F)cc2=O)c1F` [Control compound A], in the data set with integrin α4β1, the α4β1/α4β7 is reported as 50.4. This compound also had a CL in data set [1] (IV: 1 mg/kg) of 56.0 mL/min/kg. In addition, the AUC in data set [1] (PO: 10 mg/kg) came out at 830 ng·h/mL. Moreover, the “Test compound after 1h incubation Remaining% (T=60min)” value in data set [2] is 1.8%; in data set [3] it was 31.9%; in data set [4], 42.6%.

For `CC#Cc1cc(-c2c(C)cccc2C)c(F)c(C(CC(=O)O)NC(=O)[C@@H](CC(C)C)n2cc(CCN(CC)CC)c(C(F)(F)F)cc2=O)c1F` (some centres unmarked) [Trifluoroacetate salt of compound 12-2], the IC50 on integrin α4β7 (numeric value or bound) was less than 0.5 nM. For the same compound, in the data set on integrin α4β1, the IC50 is more than 100 nM and the α4β1/α4β7 turned out to be 354.

As to `Cc1cc(F)cc(C)c1-c1cc(C(CC(=O)O)NC(=O)[C@H](CC(C)C)n2cc(CC3CN(CC4CC4)C3)c(C(F)(F)F)cc2=O)cc2c1CCC2` (some centres unmarked) [Trifluoroacetate salt of compound 15-2], at integrin α4β7 (numeric value or bound), the IC50 is less than 1 nM. In the data set with integrin α4β1, the IC50 is more than 100 nM and the α4β1/α4β7 was 272.

Regarding `CC#Cc1cc(-c2c(C)cccc2C)c(F)c(C(CC(=O)O)NC(=O)[C@H](CC(C)C)n2cc(CCC3CCCN3C)c(C(F)(F)F)cc2=O)c1F` (some centres unmarked) [Trifluoroacetate salt of compound 29-2], the IC50 on integrin α4β7 (numeric value or bound) was less than 1 nM. In the data set with integrin α4β1, the IC50 was more than 200 nM and the α4β1/α4β7 came to 292.

For `Cc1cc(F)cc(C)c1-c1c(F)c(C(CC(=O)O)NC(=O)[C@H](CC(C)C)n2cc(CC3CN(C(C)C)C3)c(C(F)(F)F)cc2=O)c(F)c2c1CCC2` (some centres unmarked) [Trifluoroacetate salt of compound 32-2], the IC50 is less than 1 nM at integrin α4β7 (numeric value or bound) and more than 100 nM in the data set on integrin α4β1. The α4β1/α4β7 in the data set on integrin α4β1 is 220.
